Data reported in article PMC8496750, “Identification of the organic anion transporting polypeptides responsible for the hepatic uptake of the major metabolite of epyrifenacil, S‐3100‐CA, in mice” (Pharmacology Research & Perspectives, 2021).

Legend:
[1] = target: T1, mouse Oatp1a1 (Mus musculus, UniProt Q9QXZ6); assay: in vitro; details: 293FT cells transiently transfected with mouse Oatp1a1, probe radiolabeled S‐3100‐CA
T1 sequence (Q9QXZ6 1-670): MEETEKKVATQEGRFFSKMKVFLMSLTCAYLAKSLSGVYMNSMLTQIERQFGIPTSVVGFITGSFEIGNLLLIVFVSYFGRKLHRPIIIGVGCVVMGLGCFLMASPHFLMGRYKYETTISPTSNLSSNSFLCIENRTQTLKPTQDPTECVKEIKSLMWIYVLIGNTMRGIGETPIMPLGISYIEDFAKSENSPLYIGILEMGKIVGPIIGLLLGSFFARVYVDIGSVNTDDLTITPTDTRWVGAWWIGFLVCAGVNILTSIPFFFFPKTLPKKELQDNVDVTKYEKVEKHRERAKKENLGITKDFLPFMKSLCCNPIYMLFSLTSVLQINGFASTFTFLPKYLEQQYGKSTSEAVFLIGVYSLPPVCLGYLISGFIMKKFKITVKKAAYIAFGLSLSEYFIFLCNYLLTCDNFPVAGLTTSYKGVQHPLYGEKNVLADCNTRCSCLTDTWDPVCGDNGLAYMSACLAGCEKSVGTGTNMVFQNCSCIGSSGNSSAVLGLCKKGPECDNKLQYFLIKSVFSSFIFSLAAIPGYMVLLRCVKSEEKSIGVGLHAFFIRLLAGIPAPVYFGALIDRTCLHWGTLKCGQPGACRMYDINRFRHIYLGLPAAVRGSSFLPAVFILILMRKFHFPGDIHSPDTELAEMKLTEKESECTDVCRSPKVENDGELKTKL
Procedure: (§1) Transport experiments were conducted approximately 24 h post‐transfection. The experiments were initiated by aspirating culture medium and addition of pre‐warmed radiolabeled substrate solution (final 1.0% of acetonitrile or 0.9% of ethanol in phosphate‐buffered saline (PBS[−])) to each well. After a 10‐min incubation, cells were washed twice with 1 ml of ice‐cold PBS(−) and lysed with 700 μl of 1.0 M NaOH for 3 h or more at room temperature. The lysate was transferred to a 1.5‐ml tube, and neutralized with 350 μl of 2.0 M HCl and 350 μl of 2.0% sodium dodecyl sulfate (SDS) solution. From the lysate, 1.0 ml was transferred to a vial containing 10 ml of Emulsifier Scintillator Plus to measure the radioactivity in the LSC. The protein concentration of the cell lysate was also measured using a Pierce™ BCA Protein Assay Kit (Thermo Fisher Scientific, Inc.), which was used to normalize, according to the cell number, the radioactivity in the cell lysate extract. The protein assay was performed in duplicate. Each sample type was assayed in triplicate wells, and each run was performed twice. […] Each sample type was assayed in triplicate wells.

[2] = target: T2, mouse Oatp1a4 (Mus musculus, UniProt Q9EP96); assay: in vitro; details: 293FT cells transiently transfected with mouse Oatp1a4, probe radiolabeled S‐3100‐CA
T2 sequence (Q9EP96 1-670): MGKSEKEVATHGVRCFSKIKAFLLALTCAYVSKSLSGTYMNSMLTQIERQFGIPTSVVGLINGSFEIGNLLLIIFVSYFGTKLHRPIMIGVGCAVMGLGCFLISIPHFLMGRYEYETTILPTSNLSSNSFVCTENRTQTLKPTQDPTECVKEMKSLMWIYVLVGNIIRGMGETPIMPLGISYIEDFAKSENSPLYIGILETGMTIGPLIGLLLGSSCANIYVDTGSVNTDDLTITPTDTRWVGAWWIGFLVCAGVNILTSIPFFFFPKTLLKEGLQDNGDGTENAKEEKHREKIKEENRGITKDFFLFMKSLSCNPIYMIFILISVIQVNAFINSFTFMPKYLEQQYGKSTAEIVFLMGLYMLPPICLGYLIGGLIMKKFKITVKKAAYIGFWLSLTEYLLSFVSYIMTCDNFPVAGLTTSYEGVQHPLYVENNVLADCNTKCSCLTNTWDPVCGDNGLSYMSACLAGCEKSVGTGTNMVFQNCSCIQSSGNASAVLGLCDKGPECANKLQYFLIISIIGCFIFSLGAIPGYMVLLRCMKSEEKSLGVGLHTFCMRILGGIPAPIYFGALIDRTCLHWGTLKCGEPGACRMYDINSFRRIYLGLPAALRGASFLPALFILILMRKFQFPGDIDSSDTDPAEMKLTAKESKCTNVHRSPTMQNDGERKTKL
Procedure: as §1

[3] = system: various OATPs; assay: Inhibition of S‐3100‐CA uptake by OATP inhibitors, various OATPs; type: in vitro ADME, mouse, human; details: inhibitor at 100 μM
Procedure: 293FT cells were purchased from Thermo Fisher Scientific, Inc.. The cells were grown in Dulbecco's modified Eagle medium (supplemented with 4.5 g/L glucose and 2 mM L‐glutamine) at 37°C, 5% CO2, and 95% humidity. The cells were passaged 3 times per week by harvesting cells using trypsin and plating at a density of 1.0 × 10^4 cells/cm^2 in a 10 cm cell culture plate for maintenance culture. The 293FT cells were detached using trypsin and re‐seeded at a density of 2.5 × 10^4 cells/cm^2 in BioCoat™ Collagen I 6‐well plates (Corning Inc.) for transfection and then treated with 1.2 μg of plasmid vector and 3.2 μl of Lipofectamine™ 2000 Transfection Reagent (Thermo Fisher Scientific, Inc.) according to the manufacturer's instructions. After a 3‐h treatment, the transfection medium was replaced with a fresh cell culture medium and incubated at 37°C with 95% humidity and 5% CO2 until ready for the assay.
Transport experiments were conducted approximately 24 h post‐transfection. […] From the lysate, 1.0 ml was transferred to a vial containing 10 ml of Emulsifier Scintillator Plus to measure the radioactivity in the LSC. The protein concentration of the cell lysate was also measured using a Pierce™ BCA Protein Assay Kit (Thermo Fisher Scientific, Inc.), which was used to normalize, according to the cell number, the radioactivity in the cell lysate extract. […]

For CO[C@H]1/C=C/O[C@@]2(C)Oc3c(C)c(O)c4c(O)c(cc(O)c4c3C2=O)NC(=O)/C(C)=C\C=C\[C@H](C)[C@H](O)[C@@H](C)[C@@H](O)[C@@H](C)[C@H](OC(C)=O)[C@@H]1C [RSV, rifamycin SV], the inhibition at 10 min, 10 µM [1] was over 50%, the inhibition at 10 min, 10 µM [2] was over 50% and the “Inhibition of S‐3100‐CA uptake (in words)” value [3] was “inhibited uptake via all OATPs other than human OATP2B1”.
